Reference: US20020128311A1, “Halocyanoacetamide antimicrobial compositions” (priority 2000, published 2002)

Key:
Assay type in all cases: physicochemical
[1] = Stability of DCOIT and DBNPA mixtures in GTA, stored at 40° C., HPLC; settings: 4% DCOIT
Procedure: […] […] Surfactants were TweenTM 20, TritonTM DF-12 or TritonTM CF-10. These compositions were stored at 40° C. for 6 weeks and the concentrations of active ingredients ([…]) in the compositions were determined by HPLC at the indicated time intervals.

[2] = Stability of DBNPA in various solvents, stored at 60° C., HPLC; settings: for % DBNPA retained: 2.0 g DBNPA + 8.0 g solvent
[3] = Stability of CMIT and DBNPA mixtures in GTA, stored at 50° C., HPLC; settings: […]% CMIT/MIT mixture
Procedure: Surfactants were TweenTM 20, TritonTM DF-12 or TritonTM CF-10. The compositions were stored at 50° C. for 4 weeks and the concentrations of active ingredients ([…]) in the compositions were determined by HPLC at the indicated time intervals.

[4] = Freeze/thaw stability of DCOIT/DBNPA/surfactant/GTA compositions, HPLC; settings: for % DBNPA retained after Freezing and Thawing: thawed at 25° C. 5 hours, three times
Procedure: Samples were prepared to test the freeze/thaw stability of compositions of the present invention. The freeze/thaw test was conducted for compositions of […], surfactant and GTA prepared in Example 4. Samples (20 g each) were stored at -10° C. or -25° C. for 19 hours to be frozen; samples were then stored at 25° C. for 5 hours to be thawed. This sequence was repeated three times. Then the concentrations of active ingredients ([…]) in the compositions were determined by HPLC.

## N#CC(Br)(Br)C(N)=O [DBNPA, 2,2-dibromo-3-nitrilopropionamide]
[1]; 5% Triton CF-10, 66% GTA, 4 Weeks
  % DBNPA retained: 93.5%
[1]; 5% Triton CF-10, 66% GTA, 6 Weeks
  % DBNPA retained: 91.2%
[1]; 5% Triton CF-10, 66% GTA, Time 0
  % DBNPA retained: 100.0%
[1]; 5% Triton DF-12, 66% GTA, 4 Weeks
  % DBNPA retained: 92.3%
[1]; 5% Triton DF-12, 66% GTA, 6 Weeks
  % DBNPA retained: 92.0%
[1]; 5% Triton DF-12, 66% GTA, Time 0
  % DBNPA retained: 100.0%
[1]; 5% Tween 20, 66% GTA, 4 Weeks
  % DBNPA retained: 93.3%
[1]; 5% Tween 20, 66% GTA, 6 Weeks
  % DBNPA retained: 92.1%
[1]; 5% Tween 20, 66% GTA, Time 0
  % DBNPA retained: 100.0%
[2]; after 4 weeks in glycol, amide, ether and ketone solvents
  % retained: less than 50%
[2]; solvent 62% dipropylene glycol in water (comparative), 1 week
  % DBNPA retained: 95%
[2]; solvent 62% dipropylene glycol in water (comparative), 4 weeks
  % DBNPA retained: 20%
[2]; solvent 75% dipropylene glycol in water (comparative), 1 week
  % DBNPA retained: 79%
[2]; solvent 86% dipropylene glycol in water (comparative), 1 week
  % DBNPA retained: 49%
[2]; solvent GTA, 1 week
  % DBNPA retained: 92%
[2]; solvent GTA, 2 weeks
  % DBNPA retained: 100%
[2]; solvent GTA, 3 weeks
  % DBNPA retained: 100%
[2]; solvent GTA, 4 weeks
  % DBNPA retained: 100%
[2]; solvent PGMEA (comparative), 1 week
  % DBNPA retained: 80%
[2]; solvent PGMEA (comparative), 2 weeks
  % DBNPA retained: 65%
[2]; solvent PGMEA (comparative), 3 weeks
  % DBNPA retained: 61%
[2]; solvent PGMEA (comparative), 4 weeks
  % DBNPA retained: 45%
[2]; solvent diethyl phthalate, 1 week
  % DBNPA retained: 100%
[2]; solvent diethyl phthalate, 2 weeks
  % DBNPA retained: 98%
[2]; solvent diethyl phthalate, 3 weeks
  % DBNPA retained: 98%
[2]; solvent diethyl phthalate, 4 weeks
  % DBNPA retained: 98%
[2]; solvent dimethyl formamide (comparative), 1 week
  % DBNPA retained: 73%
[2]; solvent dimethyl formamide (comparative), 2 weeks
  % DBNPA retained: 46%
[2]; solvent ethyl acetate, 1 week
  % DBNPA retained: 100%
[2]; solvent ethyl acetate, 2 weeks
  % DBNPA retained: 100%
[2]; solvent ethyl acetate, 3 weeks
  % DBNPA retained: 100%
[2]; solvent ethyl acetate, 4 weeks
  % DBNPA retained: 100%
[2]; solvent methyl amyl ketone (comparative), 1 week
  % DBNPA retained: 9%
[2]; solvent methyl amyl ketone (comparative), 2 weeks
  % DBNPA retained: 12%
[2]; solvent methyl amyl ketone (comparative), 3 weeks
  % DBNPA retained: 0%
[2]; solvent octyl pyrrolidone (comparative), 1 week
  % DBNPA retained: 62%
[2]; solvent octyl pyrrolidone (comparative), 2 weeks
  % DBNPA retained: 50%
[2]; solvent octyl pyrrolidone (comparative), 3 weeks
  % DBNPA retained: 45%
[2]; solvent triethylene glycol dimethyl ether (comparative), 1 week
  % DBNPA retained: 15%
[2]; solvent triethylene glycol dimethyl ether (comparative), 2 weeks
  % DBNPA retained: 0%
[3]; 5% Triton CF-10, 45% GTA, 0 Time
  % DBNPA retained: 100%
[3]; 5% Triton CF-10, 45% GTA, 1 Week
  % DBNPA retained: 97%
[3]; 5% Triton CF-10, 45% GTA, 2 Weeks
  % DBNPA retained: 93%
[3]; 5% Triton CF-10, 45% GTA, 3 Weeks
  % DBNPA retained: 77%
[3]; 5% Triton CF-10, 45% GTA, 4 Weeks
  % DBNPA retained: 69%
[3]; 5% Triton DF-12, 45% GTA, 0 Time
  % DBNPA retained: 100%
[3]; 5% Triton DF-12, 45% GTA, 1 Week
  % DBNPA retained: 98%
[3]; 5% Triton DF-12, 45% GTA, 2 Weeks
  % DBNPA retained: 95%
[3]; 5% Triton DF-12, 45% GTA, 3 Weeks
  % DBNPA retained: 73%
[3]; 5% Triton DF-12, 45% GTA, 4 Weeks
  % DBNPA retained: 68%
[3]; 5% Tween 20, 45% GTA, 0 Time
  % DBNPA retained: 100%
[3]; 5% Tween 20, 45% GTA, 1 Week
  % DBNPA retained: 97%
[3]; 5% Tween 20, 45% GTA, 2 Weeks
  % DBNPA retained: 71%
[3]; 5% Tween 20, 45% GTA, 3 Weeks
  % DBNPA retained: 61%
[3]; 5% Tween 20, 45% GTA, 4 Weeks
  % DBNPA retained: 54%
[3]; no surfactant, 50% GTA, 0 Time
  % DBNPA retained: 100%
[3]; no surfactant, 50% GTA, 1 Week
  % DBNPA retained: 98%
[3]; no surfactant, 50% GTA, 2 Weeks
  % DBNPA retained: 90%
[3]; no surfactant, 50% GTA, 3 Weeks
  % DBNPA retained: 85%
[3]; no surfactant, 50% GTA, 4 Weeks
  % DBNPA retained: 78%
[4]; Example 4 composition with Triton CF-10, frozen at −10° C. 19 hours
  % DBNPA retained after Freezing and Thawing: 98.8%
[4]; Example 4 composition with Triton CF-10, frozen at −25° C. 19 hours
  % DBNPA retained after Freezing and Thawing: 98.8%
[4]; Example 4 composition with Triton DF-12, frozen at −10° C. 19 hours
  % DBNPA retained after Freezing and Thawing: 98.8%
[4]; Example 4 composition with Triton DF-12, frozen at −25° C. 19 hours
  % DBNPA retained after Freezing and Thawing: 99%
[4]; Example 4 composition with Tween 20, frozen at −10° C. 19 hours
  % DBNPA retained after Freezing and Thawing: 99.2%
[4]; Example 4 composition with Tween 20, frozen at −25° C. 19 hours
  % DBNPA retained after Freezing and Thawing: 99.1%
[4]; in GTA solutions in the presence of surfactants
  physical stability (appearance) during freeze/thaw cycling: clear solution, no precipitation or phase separation observed
